Measured values reported in ChEMBL document CHEMBL1201862, “PubChem BioAssay data set” (2004).
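Interpolation was linear, between the two tested concentrations surrounding the appropriate level; five concentrations were tested over 48 hours in 96-well plates. GI50 marks 50% less growth.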 Calls of active or inactive are those of the source. No stated cut-off is given here; in the data, active = GI50 up to about 1.1 µM and inactive = higher.

Columns and labels:
Test in all cases: inhibition of tumour cell growth, NCI panel, 48 h
OVCAR-8 = tested on: OVCAR-8
SNB-75 = tested on: SNB-75
SK-MEL-2 = tested on: SK-MEL-2
LOX IMVI = tested on: LOX IMVI
HCT-15 = tested on: HCT-15
OVCAR-5 = tested on: OVCAR-5
K562 = tested on: K562
SN12C = tested on: SN12C
SW-620 = tested on: SW-620
EKVX = tested on: EKVX
SK-OV-3 = tested on: SK-OV-3
HT-29 = tested on: HT-29
XF498 = tested on: XF498
NCI-H226 = tested on: NCI-H226
PC-3 = tested on: PC-3
DMS-114 = tested on: DMS-114
MCF7 = tested on: MCF7
MDA-MB-435 = tested on: MDA-MB-435
Hs-578T = tested on: Hs-578T
T47D = tested on: T47D

Row | SMILES | GI50 (OVCAR-8) | GI50 (SNB-75) | GI50 (SK-MEL-2) | GI50 (LOX IMVI) | GI50 (HCT-15) | GI50 (OVCAR-5) | GI50 (K562) | GI50 (SN12C) | GI50 (SW-620) | GI50 (EKVX) | GI50 (SK-OV-3) | GI50 (HT-29) | GI50 (XF498) | GI50 (NCI-H226) | GI50 (PC-3) | GI50 (DMS-114) | GI50 (MCF7) | GI50 (MDA-MB-435) | GI50 (Hs-578T) | GI50 (T47D)
1 | COC1=C2CC(C)CC(OC)C(O)C(C)/C=C(\C)C(OC(N)=O)C(OC)/C=C\C=C(/C)C(=O)NC(=C(/C=N/N3CCCCC3)C1=O)C2=O (stereo not given) | 3.83 µM (inactive) | 17.8 µM (inactive) | 17 µM (inactive) | 8.55 µM (inactive) | 12.2 µM | 19.4 µM (inactive) | 5.4 µM (inactive) | 4.5 µM (inactive) | 2.82 µM (inactive) | 8.43 µM (inactive) | 21.9 µM (inactive) | 6.55 µM (inactive) | 8.95 µM (inactive) | 12.4 µM (inactive) | 15.3 µM (inactive) |  |  |  |  | 
2 | COc1ccc(CC2(Cc3ccc(OC)cc3)CCOC2=O)cc1 | > 100 µM (inactive) | 14.7 µM (inactive) | 94.8 µM (inactive) |  |  | > 100 µM (inactive) | > 100 µM (inactive) | > 100 µM (inactive) | > 100 µM (inactive) | 44.2 µM (inactive) | > 100 µM (inactive) | > 100 µM (inactive) | 0.582 µM (active) | > 100 µM (inactive) |  | 23.9 µM (inactive) |  |  |  | 
3 | Cc1cc2c(C)nn(Cc3ccccc3)c2c(C(N)=O)c1C | > 100 µM (inactive) | 21.6 µM (inactive) | > 100 µM (inactive) | > 100 µM (inactive) | > 100 µM | > 100 µM (inactive) | > 100 µM (inactive) | > 100 µM (inactive) | > 100 µM (inactive) | > 100 µM (inactive) | > 100 µM (inactive) | > 100 µM (inactive) | > 100 µM (inactive) |  |  | > 100 µM (inactive) |  |  |  | 
4 | Cc1ccc(C2=NN(C)COC2C(F)(F)F)cc1 (stereo not given) | > 100 µM (inactive) | 21.2 µM (inactive) | > 100 µM (inactive) |  | > 100 µM | > 100 µM (inactive) | > 100 µM (inactive) | > 100 µM (inactive) | > 100 µM (inactive) | > 100 µM (inactive) | > 100 µM (inactive) | > 100 µM (inactive) |  | > 100 µM (inactive) |  | > 100 µM (inactive) |  |  |  | 
5 | CCOC(=O)N1CCN(C=S)CC1 | > 100 µM (inactive) | > 100 µM (inactive) | > 100 µM (inactive) | > 100 µM (inactive) | > 100 µM | > 100 µM (inactive) | > 100 µM (inactive) | > 100 µM (inactive) | > 100 µM (inactive) | > 100 µM (inactive) | > 100 µM (inactive) | > 100 µM (inactive) |  |  |  | > 100 µM (inactive) |  |  |  | 
6 | C[N+](C)(C)CC(=O)N/N=C(/Cc1nc2c3c(ccc2nc1O)C(=O)c1ccccc1C3=O)C(=O)Nc1ccc(Cl)c(Cl)c1 | 50.5 µM (inactive) |  | 91.2 µM (inactive) |  |  | > 100 µM (inactive) | 53.5 µM (inactive) | 86.9 µM (inactive) | 35.2 µM (inactive) | 13.1 µM (inactive) | 23.9 µM (inactive) | > 100 µM (inactive) |  |  |  | 27 µM (inactive) |  |  |  | 
7 | c1ccc([P+](CCC[P+](c2ccccc2)(c2ccccc2)c2ccccc2)(c2ccccc2)c2ccccc2)cc1 | 32.6 µM (inactive) | 31.8 µM (inactive) |  | 23.7 µM (inactive) |  | 71.1 µM (inactive) | 8.2 µM (inactive) | 33.3 µM (inactive) | 36.7 µM (inactive) | > 100 µM (inactive) | > 100 µM (inactive) | 34.4 µM (inactive) | 23.7 µM (inactive) | 23.6 µM (inactive) |  | 16.5 µM (inactive) |  |  |  | 
8 | Cc1cc(Cl)ccc1NC(=O)CCCC(=O)C1CCCC1=O (stereo not given) | > 100 µM (inactive) |  | > 100 µM (inactive) | > 100 µM (inactive) | > 100 µM | > 100 µM (inactive) | > 100 µM (inactive) | > 100 µM (inactive) | > 100 µM (inactive) | > 100 µM (inactive) | > 100 µM (inactive) | > 100 µM (inactive) | > 100 µM (inactive) | > 100 µM (inactive) |  | > 100 µM (inactive) |  |  |  | 
9 | O=C(/C=C/c1ccccc1Cl)c1ccc(Cl)cc1Cl | 15.7 µM (inactive) | 18.7 µM (inactive) |  |  | 11.7 µM | 17.1 µM (inactive) | 3.02 µM (inactive) | 17.9 µM (inactive) | 1.74 µM (inactive) | 18.9 µM (inactive) | 19.4 µM (inactive) | 14.3 µM (inactive) |  | 15.7 µM (inactive) |  | 11.8 µM (inactive) |  |  |  | 
10 | O=Nn1c2ccccc2c2ccccc21 | > 100 µM (inactive) | 75 µM (inactive) | 61.7 µM (inactive) | 48.1 µM (inactive) | 35.1 µM | > 100 µM (inactive) | 58.9 µM (inactive) | > 100 µM (inactive) | 66.8 µM (inactive) | 22.4 µM (inactive) | 84.5 µM (inactive) | 50.2 µM (inactive) |  | 55.5 µM (inactive) | 42.8 µM (inactive) |  | 45 µM (inactive) | 77.4 µM (inactive) | 46.2 µM (inactive) | 66.5 µM (inactive)
